Test results from patent US11505583B2, “Proteins for the treatment of epithelial barrier function disorders” (Second Genome, Inc., priority 2018, dated 2022).

Columns and labels:
[1] = tested on: HCT8 enterocyte and HT29-MTX goblet cell lines; assay: Oris Cell Migration assay (epithelial cell wound healing); format: cell-based, human; details: 48 hours; SG-11 (SEQ ID NO:5 or SEQ ID NO:9) 1 μg/ml, EGF 30 ng/ml, staurosporine 100 nM; FIG. 2
Description: The 96 well Oris Cell Migration assay containing plugs preventing cell attachment in the center of each well was used according to the manufacturer's instructions (Platypus Technologies, Madison, Wis.). The migration assay plates were warmed to room temperature prior to use and plugs were removed from 100% confluence wells prior to cell addition. The HCT8 enterocyte and HT29-MTX goblet cell lines were used at a 9:1 ratio with a total of 5×10^4 total cells added per well (4.5×10^4 HCT8 cells and 0.5×10^4 HT29-MTX cells). Cells were incubated at 37° C.+5% CO2 for 24 hours. Plugs were then removed from all control and sample wells. Control wells included cells treated with the diluent vehicle as the blank, 30 ng/ml epidermal growth factor (EGF) as the positive control, and 100 nM staurosporine as the negative control, all diluted in cRPMI. Sample wells contained SG-11 protein (SEQ ID NO:9) at a concentration of 1 μg/ml diluted in cRPMI. 100% and 0% wells were cultured in cRPMI. […] The green fluorescent viability dye […] was added to all wells at a concentration of 0.5 μg/ml in PBS containing 0.9 mM CaCl2 and 0.5 mM MgCl2, incubated for 30 min at 37° C.+5% CO2, the dye was removed and cells were washed in PBS containing 0.9 mM CaCl2 and 0.5 mM MgCl2 and fluorescence was measured. […] Samples were normalized between 100% and 0% samples and values expressed as a percent growth.

[2] = mouse, in vivo, ip
[3] = tested on: C57BL/6 mice given 2.5% DSS in drinking water; assay: Therapeutic DSS model of inflammatory bowel disease, treatment after 7 days DSS (Example 5, Example 13B); format: in vivo, mouse
Description: In this example, experiments were performed to study the effects of SG-11 in the DSS mouse model when the SG-11 protein is administered to the mice after DSS treatment for 7 days. This differs from the treatment regimen of Example 4 above in which mice were administered SG-11 protein shortly before treatment with DSS.
Eight-week-old male C57BL/6 mice were housed 5 animals per cage and given food and water ad libitum for seven days. Following a 7-day acclimation period, the mice were provided with drinking water containing 2.5% DSS for 7 days. Fresh 2.5% DSS water was prepared every 2 days during the 7 day DSS administration. For this therapeutic DSS study, SG-11 used to treat the animals was fused at its N-terminus to a FLAG Tag (DYKDDDDK; SEQ ID NO:32).
On day 7 normal drinking water was restored and i.p. treatments of 50 nmole/kg of SG-11 (1.3 mg/kg) or Gly2-GLP2 (0.2 mg/kg) were initiated. Treatments were administered twice a day (b.i.d.), with a morning and evening dose (every 8 and 16 hours) for six days.
Body weight was measured daily during the morning treatment. The colon tissue was then harvested and length was measured in centimeters and the tissue was weighed. Fecal material was flushed from the colon and residual PBS removed by gently running the colon tissue through a pair of forceps. The colon tissue was then weighed and colon weight to length ratio in mg/mm was determined. Following weight measurements proximal and distal colon tissue was banked for RNA and protein analysis and the remaining tissues was fixed in 10% neutral buffered formalin for histopathology. Statistical analysis was performed by a one-way ANOVA compared to DSS+vehicle for serum 4KDa-FITC translocation, serum LBP concentrations, colon length, and colon weight to length ratio, while a two-way ANOVA was performed for analysis of body weight. In all analysis, a Fisher's LSD test for multiple comparisons was used. Graphs represent data pooled from two experiments, and are plotted as mean±SEM.
Histopathology analysis was performed on proximal and distal colon tissues from the therapeutic DSS model described above. Proximal (FIG. 13A) and distal (FIG. 13B) colon scores (range 0-4) are presented and as well as the total score for the colon which represents the sum of proximal and distal colon scores (Range 0-8) (FIG. 13C). LMA=Loss of mucosal architecture, Edema=Edema, INF=Inflammation, TMI=Transmural inflammation, MH=Mucosal hyperplasia, DYS=Dysplasia. Graphs represent data pooled from two independent experiments, and are plotted as mean±SEM. Statistical analysis was performed by a one-way ANOVA compared to DSS+vehicle followed by a Fisher's LSD test for multiple comparisons.
In the second experiment (Example 13B), mice were provided with drinking water containing 2.5% DSS for 7 days. On day 7 normal drinking water was restored and i.p. treatments of 50 nmole/kg of SG-11 (SEQ ID NO:7) (1.3 mg/kg), SG-11V5 (SEQ ID NO:19) (1.3 mg/kg), or Gly2-GLP2 (0.2 mg/kg) were initiated. […]
At the end of each DSS model study, mice were fasted for 4 hours and then orally gavaged with 600 mg/kg 4KDa dextran labeled with fluorescein isothiocyanate (FITC) [4KDa-FITC]. One hour after the 4KDa-FITC gavage mice were euthanized, blood was collected and FITC signal was measured in serum. […]
Upon completion of the DSS models above, LBP levels were measured as an inflammation centric readout of barrier function following the protocol detailed in Example 5. […]

[4] = tested on: C57BL/6 mice given 2.5% DSS in drinking water; assay: Concurrent (prophylactic) DSS model of inflammatory bowel disease (Example 4, Example 13A); format: in vivo, mouse; details: 50 nmoles/kg i.p. b.i.d.
[5] = Example 5, colon tissue, vs DSS+vehicle, FIG. 13

Compound: epidermal growth factor [EGF, positive control in the wound healing assay]
- Percent growth (epithelial cell wound healing, proliferation) [1]: increasing proliferation

Compound: fluorescently labeled bovine serum albumin: tracer protein used in preliminary tracking studies after i.p. injection
- Time at which protein reached the colon after i.p. delivery [2]: 6 h

Compound: Gly2-GLP2: stable analog of glucagon-like peptide 2 (GLP2), positive control (HGDGSFSDEMNTILDNLAARDFINWLIQTKITD; Glucagon-like peptide 2; UniProt P01275 146-178, looked up, variant A2G) [reference compound]
- LBP in serum ([3]; Example 5, 50 nmole/kg i.p. b.i.d. for six days after 7 days DSS, FIG. 10): no reduction in LBP
- Histopathology: inflammation and transmural inflammation scores [3, 5]: no change
- Histopathology: loss of mucosal architecture score [3, 5]: modest, but significant, reduction
- Colon weight to length ratio ([3]; Example 13B, 50 nmole/kg, vs DSS+vehicle, p<0.01, FIG. 23B): did not
- 4KDa-FITC intestinal permeability readout and serum LBP ([3]; treatment after 7 days DSS, 50 nmole/kg i.p. b.i.d. for six days, FLAG-tagged SG-11): no significant effects
- Colon length ([4]; FIG. 8A): significant improvement in colon length
- Colon weight to length ratio ([4]; FIG. 8B): significant improvement in colon weight to length ratios

Compound: CN[C@@H]1C[C@H]2O[C@@](C)([C@@H]1OC)n1c3ccccc3c3c4c(c5c6ccccc6n2c5c31)C(=O)NC4 [staurosporine]
- Percent growth (epithelial cell wound healing, proliferation) [1]: suppressing cell proliferation
